In US8242083B2, “Kinase substrates” (PerkinElmer Health Sciences, Inc., priority 2008, dated 2012):

Test system: 83 tyrosine kinases
Experiment: Panel of 83 TR-FRET tyrosine kinase assays
Assay type: biochemical
Details: 83 tyrosine kinases tested; conditions of Example 1
Experimental: TR-FRET kinase assays are performed under standardized conditions: various individual kinases are incubated with 50 nM of kinase substrate BRB1 labeled with the TR-FRET acceptor dye ULight (PerkinElmer) and 200 micromolar ATP in 10 μL of kinase assay buffer (50 mM HEPES pH7.5, 10 mM MgCl2, 3 mM MnCl2, 1 mM EGTA, 2 mM DTT and 0.01% Tween-20) for 2 hours at room temperature. Reactions are stopped with EDTA, and anti-phospho-tyrosine antibodies (clone PT66) labeled with the TR-FRET europium chelate donor dye are added to a final concentration of 2 nM in a final volume of 20 μL. The TR-FRET signal emitted at 665 nm is read one hour after the addition of antibodies using a TR-FRET plate reader such as the Envision® Multilabel Plate reader (PerkinElmer). The emitted signal at 665 nm is proportional to the extent of peptide phosphorylation, Control reactions indicative of background are performed excluding ATP from the reaction.
Assay conditions are identical to those used described for FIG. 1.
The BRB2 peptide is tested with 83 tyrosine kinases in assay conditions identical to those used for BRB1 in Example 1. Data obtained with BRB2 indicate that the peptide is phosphorylated by 65 kinases out of 83 (78%), with signal to noise ratio of >3.

Sequence: CGG E AYE AYE AYE AYA EYE ARR (CGGEAYEAYEAYEAYAEYEARR; tyrosine kinase substrate peptide) [BRB2]
- Number of kinases out of 83 that phosphorylated the peptide with signal to noise ratio of >3: 65
- Percentage of 83 kinases that phosphorylated the peptide with signal to noise ratio of >3: 78%
